The subject of series [1] is HCV Con1 subgenomic replicon of genotype 1b (GS4.1 cells). Put plainly: microbe, parasite or virus in culture. The class given is cell-based, HCV genotype 1b. The following applies: Hepatitis C virus; for EC50: 72 h.
The test system of series [2] is Huh-7-derived cell line (Zluc) that harbors an HCV genotype 1b replicon and a luciferase reporter gene. Put plainly: microbe, parasite or virus in culture. The class given is cell-based. The following applies: Hepatitis C virus, 72 h.
The test system is the same in series [3]. Briefly: microbe, parasite or virus in culture. Format: cell-based. To be noted: Hepatitis C virus, 72 h. The source holds these as a separate data set.
Another series is described as follows: in vitro. To be noted: human.
Series [4] is described as follows: Cytotoxicity (CC50) reported with the HCV replicon ELISA assay. The following applies: human. On the technique in general: In antiviral work, replicon cells carry a viral genome segment that copies itself.

We go through 18 compounds from US8193372B2, “Phosphothiophene and phosphothiazole HCV polymerase inhibitors” (Idenix Pharmaceuticals, Inc., priority 2009, dated 2012).

The structures appear in SMILES notation.

As a reminder, the IC50 is the concentration at which inhibition is half-maximal. Lower therefore signals greater potency in that assay. The EC50 is the concentration at which the effect is half-maximal. Low readings indicate an effect from little substance, high ones a need for much substance. `COP(=O)(Nc1cc(-c2ccc(C(C)(C)C)cc2)sc1C(=O)O)c1ccc(C)cc1C` (stereo not shown) [Compound 156]: the IC50 in series [1] was 0.1 to 8.3 µM. Moreover, the EC50 in series [1] was 0.1 to 8.3 µM; in series [2] it was over 8.3 µM; in series [3], 0.1 to 8.3 µM. In “in vitro”, this compound gave a CC50 of over 8.3 µM.

Compound `COP(=O)(Nc1cc(-c2ccc(Cl)cc2)sc1C(=O)O)c1ccc(C)cc1C` (stereo not shown) [Compound 155] displayed a half-maximal inhibitory concentration (IC50) in series [1] of under 0.1 µM. In addition, the concentration for a half-maximal effect (EC50) in series [1] was 0.1 to 8.3 µM; in series [2], over 8.3 µM; in series [3], 0.1 to 8.3 µM. This compound displayed a CC50 in “in vitro” of over 8.3 µM.

Take `COP(=O)(Nc1cc(-c2ccc(-c3cc4ncccc4o3)cc2)sc1C(=O)O)c1ccc(C)cc1C` (stereo not shown) [Compound 152]: the concentration for half-maximal inhibition (IC50) in series [1] is under 0.1 µM. The EC50 in series [1], in series [2] and in series [3] was under 0.1 µM each time. In the series “in vitro”, this compound gave a CC50 of over 8.3 µM.

In turn, `CCOP(=O)(Nc1cc(-c2ccc(-c3cc4ncccc4o3)cc2)sc1C(=O)O)c1ccc(Cl)cc1F` (stereo not shown) [Compound 160] yielded a concentration for half-maximal inhibition (IC50) in series [1] of under 0.1 µM. In addition, the EC50 in series [1] is under 0.1 µM; in series [2], 0.1 to 8.3 µM; in series [3], under 0.1 µM. Besides, the CC50 in the series “in vitro” was over 8.3 µM.

With `Cc1ccc(P(=O)(Nc2cc(-c3ccc(Cl)cc3)sc2C(=O)O)OC2CCOCC2)c(C)c1` (stereo not shown) [Compound 135], in series [1], the 50% inhibitory concentration (IC50) is under 0.1 µM and the EC50 was 0.1 to 8.3 µM. This compound yielded a CC50 at 72 hr in series [4] of over 8.3 µM.

Compound `COP(=O)(Nc1cc(-c2ccc(F)cc2)sc1C(=O)O)c1ccc(C)cc1C` (stereo not shown) [Compound 21, 2-Thiophenecarboxylic acid, 3-N-[(2,4-dimethyl-phenyl)-phosphonamidatemethyl ester]-5-(4-fluorophenyl)] displayed an IC50 in series [1] of 0.1 to 8.3 µM. The results for the 50% effective concentration (EC50) in series [1], in series [2] and in series [3] were 0.1 to 8.3 µM, over 8.3 µM and 0.1 to 8.3 µM, respectively. The same compound gave a CC50 in “in vitro” of over 8.3 µM.

In series [1], `Cc1ccc(P(=O)(Nc2cc(-c3ccc(Cl)cc3)sc2C(=O)O)OCCC(C)(C)C)c(C)c1` (stereo not shown) [Compound 90] came in with an IC50 of 0.1 to 8.3 µM and a half-maximal effective concentration (EC50) of 0.1 to 8.3 µM. The compound further returned a CC50 at 72 hr in series [4] of over 8.3 µM.

`COP(=O)(Nc1cc(-c2ccc(-c3cc4ccccc4s3)cc2)sc1C(=O)O)c1ccc(C)cc1C` (stereo not shown) [Compound 153] had an IC50 in series [1] of under 0.1 µM. In addition, the values for the half-maximal effective concentration (EC50) in series [1], in series [2] and in series [3] were under 0.1 µM, 0.1 to 8.3 µM and under 0.1 µM, respectively. In “in vitro”, this compound gave a CC50 of over 8.3 µM.

`COP(=O)(c1ccc(C)cc1C)N(C)c1cc(-c2ccc(F)cc2)sc1C(=O)O` (stereo not shown) [Compound 32, 2-Thiophenecarboxylic acid, 3-N-methyl-N-[(2,4-dimethyl-phenyl)-phosphonamidatemethyl ester]-5-(4-fluorophenyl)] displayed an IC50 in series [1] of 0.1 to 8.3 µM. Moreover, the EC50 was 0.1 to 8.3 µM in series [1], over 8.3 µM in series [2] and 0.1 to 8.3 µM in series [3]. The compound further came in with a CC50 in the series “in vitro” of over 8.3 µM.

In series [1], `Cc1ccc(P(=O)(Nc2cc(-c3ccc(Cl)cc3)sc2C(=O)O)OCC2CCOCC2)c(C)c1` (stereo not shown) [Compound 84] had an IC50 of 0.1 to 8.3 µM and an EC50 of 0.1 to 8.3 µM. Moreover, the CC50 at 72 hr in series [4] was over 8.3 µM.

In series [1], `Cc1ccc(P(=O)(Nc2cc(-c3ccc(Cl)cc3)sc2C(=O)O)OCCc2ccc(F)cc2)c(C)c1` (stereo not shown) [Compound 92] came in with an IC50 of 0.1 to 8.3 µM and a concentration giving a half-maximal response (EC50) of 0.1 to 8.3 µM. For the same compound, the CC50 at 72 hr in series [4] is over 8.3 µM.

As for `COP(=O)(Nc1cc(-c2ccc(-c3cc4ncccn4n3)cc2)sc1C(=O)O)c1ccc(C)cc1C` (stereo not shown) [Compound 169], the EC50 in series [2] and in series [3] was under 0.1 µM each time.

In series [1], `COC(=O)c1sc(-c2ccc(F)cc2)cc1NP(=O)(OC(C)C)c1ccc(C)cc1C` (stereo not shown) [Compound 171] came in with a concentration for half-maximal inhibition (IC50) of over 8.3 µM and an EC50 of over 8.3 µM. The same compound returned a CC50 at 72 hr in series [4] of over 8.3 µM.

Regarding `COP(=O)(Nc1cc(-c2ccccc2)sc1C(=O)O)c1ccc(C)cc1C` (stereo not shown) [Compound 162], the concentration giving a half-maximal response (EC50) is over 8.3 µM in series [2] and 0.1 to 8.3 µM in series [3].

Consider `COC1CCC(OP(=O)(Nc2cc(-c3ccc(Cl)cc3)sc2C(=O)O)c2ccc(C)cc2C)CC1` (stereo not shown) [Compound 95], for which, in series [1], the IC50 lay within 0.1 to 8.3 µM and the EC50 lay in the range of 0.1 to 8.3 µM. The compound further showed a CC50 at 72 hr in series [4] of over 8.3 µM.

With `Cc1ccc(P(=O)(Nc2cc(-c3ccc(Cl)cc3)sc2C(=O)O)OCc2cc3ccccc3o2)c(C)c1` (stereo not shown) [Compound 93], in series [1], the half-maximal inhibitory concentration (IC50) is 0.1 to 8.3 µM and the concentration for a half-maximal effect (EC50) is 0.1 to 8.3 µM. The CC50 at 72 hr in series [4] was over 8.3 µM.

In turn, `CCOP(=O)(Nc1cc(-c2ccc(-c3cc4ncccn4n3)cc2)sc1C(=O)O)c1ccc(Cl)cc1Cl` (stereo not shown) [Compound 11, 3-N-[(2,4-dichloro-phenyl)-phosphonamidateethyl ester]-5-(4-pyrazolo[1,5-a]pyrimidin-2-ylphenyl)-2-thiophenecarboxylic acid] came in with an IC50 in series [1] of under 0.1 µM. Besides, the EC50 in series [1] was under 0.1 µM; in series [2] it was 0.1 to 8.3 µM; in series [3] it was under 0.1 µM. Moreover, the CC50 in “in vitro” was over 8.3 µM.

In series [1], `CCOP(=O)(Nc1cc(-c2ccc(C#Cc3cscn3)cc2)sc1C(=O)O)c1ccc(Cl)cc1Cl` (stereo not shown) [Compound 24, 3-N-[(2,4-dichloro-phenyl)-phosphonamidateethyl ester]-5-(4-phenyl-ethynyl-1,3-thiazole)-2-thiophenecarboxylic acid] displayed a half-inhibitory concentration (IC50) of under 0.1 µM. Further, the concentration giving a half-maximal response (EC50) in series [1], in series [2] and in series [3] was 0.1 to 8.3 µM each time. In “in vitro”, this compound returned a CC50 of over 8.3 µM.
